Data: ChEMBL document CHEMBL1201862, “PubChem BioAssay data set” (2004)
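Method: 48-hour compound exposure of cells in 96-well plates, five concentrations, linear interpolation of endpoints. GI50 is the concentration that inhibits growth by half.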 The source made the active and inactive calls. Cut-off read from the data, not from the text of the source: active = GI50 up to about 1.1 µM and inactive = higher.

How the values were obtained:
Test in all cases: inhibition of tumour cell growth, NCI panel, 48 h
ACHN = tested on: ACHN
HL-60 = tested on: HL-60
HOP-92 = tested on: HOP-92
Hs-578T = tested on: Hs-578T
K562 = tested on: K562
LOX IMVI = tested on: LOX IMVI
MCF7 = tested on: MCF7
NCI-H226 = tested on: NCI-H226
NCI/ADR-RES = tested on: NCI/ADR-RES
OVCAR-8 = tested on: OVCAR-8
PC-3 = tested on: PC-3
RPMI-8226 = tested on: RPMI-8226
RXF 393 = tested on: RXF 393
SF-539 = tested on: SF-539
SK-MEL-5 = tested on: SK-MEL-5
SK-OV-3 = tested on: SK-OV-3
SNB-75 = tested on: SNB-75
T47D = tested on: T47D
TK-10 = tested on: TK-10
SR = tested on: SR

Measured: GI50

N#CC[N+]1(Cc2ccccn2)CCCC1.O=S(=O)([O-])c1ccccc1
inactive: ACHN > 100 µM | HL-60 70.6 µM | HOP-92 > 100 µM | Hs-578T > 100 µM | K562 > 100 µM | LOX IMVI > 100 µM | MCF7 > 100 µM | NCI-H226 > 100 µM | NCI/ADR-RES > 100 µM | OVCAR-8 > 100 µM | PC-3 > 100 µM | RPMI-8226 > 100 µM | RXF 393 > 100 µM | SF-539 > 100 µM | SK-MEL-5 > 100 µM | SK-OV-3 > 100 µM | SNB-75 58.9 µM | T47D > 100 µM | TK-10 > 100 µM

O=C(c1ccccc1)c1ccc(N2C(=O)/C(=C/c3ccccc3S)N=C2c2ccccc2)c(N2C(=O)/C(=C/c3ccccc3S)N=C2c2ccccc2)c1
inactive: ACHN 60.4 µM | HL-60 11.8 µM | HOP-92 > 100 µM | Hs-578T 35 µM | K562 48.9 µM | LOX IMVI 24.9 µM | MCF7 45.6 µM | NCI/ADR-RES 32.4 µM | OVCAR-8 27.8 µM | PC-3 42.6 µM | RPMI-8226 21.9 µM | SF-539 21.3 µM | SK-MEL-5 29.4 µM | SK-OV-3 > 100 µM | SNB-75 21.2 µM | SR 30.5 µM | T47D 43.3 µM | TK-10 > 100 µM

O=[N+]([O-])c1cccc([N+](=O)[O-])c1S(=O)(=O)c1ccccc1
inactive: ACHN 2.17 µM | HL-60 2.71 µM | HOP-92 3.76 µM | Hs-578T 20.8 µM | LOX IMVI 1.84 µM | MCF7 5.87 µM | NCI-H226 12.2 µM | NCI/ADR-RES 6.24 µM | OVCAR-8 2.48 µM | PC-3 11.9 µM | RPMI-8226 1.46 µM | SF-539 15.8 µM | SK-MEL-5 14.1 µM | SK-OV-3 16.8 µM | SR 1.63 µM | T47D 2.13 µM | TK-10 16 µM

Cc1ncc(CO)c(CN)c1O
inactive: ACHN > 100 µM | HL-60 41.9 µM | Hs-578T > 100 µM | K562 > 100 µM | LOX IMVI > 100 µM | MCF7 > 100 µM | NCI-H226 > 100 µM | NCI/ADR-RES > 100 µM | OVCAR-8 > 100 µM | PC-3 > 100 µM | RPMI-8226 > 100 µM | RXF 393 > 100 µM | SF-539 > 100 µM | SK-MEL-5 > 100 µM | SK-OV-3 > 100 µM | T47D > 100 µM | TK-10 > 100 µM

O=c1[nH]nc(Cc2ccc(Cl)cc2)n1O
inactive: ACHN > 100 µM | HL-60 > 100 µM | HOP-92 > 100 µM | Hs-578T > 100 µM | K562 > 100 µM | LOX IMVI > 100 µM | MCF7 > 100 µM | NCI-H226 > 100 µM | NCI/ADR-RES > 100 µM | OVCAR-8 > 100 µM | PC-3 > 100 µM | RPMI-8226 > 100 µM | RXF 393 > 100 µM | SF-539 > 100 µM | SK-MEL-5 > 100 µM | SK-OV-3 > 100 µM | SR > 100 µM | T47D > 100 µM | TK-10 > 100 µM

O=C(O)c1ccc(C(O)(c2ccccc2)c2ccccc2)cc1
inactive: ACHN > 100 µM | HL-60 > 100 µM | Hs-578T > 100 µM | K562 > 100 µM | LOX IMVI > 100 µM | MCF7 > 100 µM | NCI/ADR-RES > 100 µM | OVCAR-8 > 100 µM | PC-3 > 100 µM | RPMI-8226 > 100 µM | SK-MEL-5 > 100 µM | SK-OV-3 > 100 µM | SR > 100 µM | T47D > 100 µM | TK-10 > 100 µM

CCCCCCCCCCCCNC(C)=O
inactive: ACHN 23.2 µM | HOP-92 2.26 µM | Hs-578T 14.4 µM | LOX IMVI 6.85 µM | MCF7 17.1 µM | NCI-H226 18.7 µM | NCI/ADR-RES 17.3 µM | OVCAR-8 18.9 µM | PC-3 14.5 µM | RPMI-8226 13.4 µM | RXF 393 18.9 µM | SF-539 16.3 µM | SK-MEL-5 16.8 µM | SK-OV-3 15.7 µM | SNB-75 23.6 µM | T47D 18.9 µM | TK-10 13.7 µM
